Results reported in PMC3350394, “Kinetic analysis and test-retest variability of the radioligand [^11C](R)-PK11195 binding to TSPO in the human brain - a PET study in control subjects” (EJNMMI Research, 2012).
Values joined by “and” are separate entries in the source; they are usually repeats but may differ in a detail not shown here. Identical values can stand only once.

Assays:
p-glycoprotein-ABCB1 = tested on: p-glycoprotein-ABCB1; design: method as in PMID 19948230; conditions: cited from earlier work
TSPO = TSPO (Homo sapiens, UniProt P30536); test: PET, modified 2TCM with shared K1/k2; assay type: in vivo; design: from tissue; host or cells: living human brain (in vivo PET in six control subjects); conditions: first PET measurement
Chain of TSPO (P30536 whole entry): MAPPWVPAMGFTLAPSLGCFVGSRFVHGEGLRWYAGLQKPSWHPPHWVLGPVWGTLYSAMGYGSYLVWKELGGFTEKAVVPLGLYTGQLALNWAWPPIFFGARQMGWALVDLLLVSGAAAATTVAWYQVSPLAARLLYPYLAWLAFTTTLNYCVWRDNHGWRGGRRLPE
Method: In addition, data were analysed using a modified 2TCM model which fitted parameters K1/k2, k2, k3 and k4 of the model to several TACs simultaneously in a way that the parameter K1/k2 was shared between regions. First, all ROIs primarily consisting of the grey matter, including the ROI of the typical GM uptake, were fitted in this way then followed by a fit involving white matter regions and, again, the ROI of the typical GM uptake. The ROI of the typical GM uptake was used in the second fitting session to allow for a coupling of K1/k2 between that region and white matter ROIs. However, the parameters obtained for the typical GM ROI in the first session were retained for final analysis.

[1] = cortical grey matter, individual subjects 1-6
[2] = cortical grey matter, mean of 6 subjects
[3] = white matter, individual subjects 1-6
[4] = white matter, mean of 6 subjects

CC[C@@H](C)N([11CH3])C(=O)c1cc2ccccc2c(-c2ccccc2Cl)n1 [[^11C](R)-PK11195]
substrate for ABC transporter (p-glycoprotein-ABCB1): not a substrate
k2 (TSPO; cortical grey matter): 0.228 min⁻¹
k3 (TSPO; cortical grey matter): 0.053 min⁻¹
K1 (TSPO; [1]): 0.050 mL/cc/min and 0.092 mL/cc/min and 0.070 mL/cc/min and 0.089 mL/cc/min and 0.046 mL/cc/min and 0.080 mL/cc/min
k2 (TSPO; [1]): 0.180 min⁻¹ and 0.236 min⁻¹ and 0.228 min⁻¹ and 0.307 min⁻¹ and 0.185 min⁻¹ and 0.235 min⁻¹
k3 (TSPO; [1]): 0.021 min⁻¹ and 0.055 min⁻¹ and 0.046 min⁻¹ and 0.124 min⁻¹ and 0.035 min⁻¹ and 0.036 min⁻¹
k4 (TSPO; [1]): 0.014 min⁻¹ and 0.054 min⁻¹ and 0.025 min⁻¹ and 0.061 min⁻¹ and 0.026 min⁻¹ and 0.020 min⁻¹
K1 (TSPO; [2]): 0.071 mL/cc/min
k4 (TSPO; [2]): 0.033 min⁻¹
k2 (TSPO; white matter): 0.159 min⁻¹
k3 (TSPO; white matter): 0.036 min⁻¹
K1 (TSPO; [3]): 0.067 mL/cc/min and 0.056 mL/cc/min and 0.062 mL/cc/min and 0.032 mL/cc/min and 0.061 mL/cc/min and 0.036 mL/cc/min
k2 (TSPO; [3]): 0.169 min⁻¹ and 0.180 min⁻¹ and 0.159 min⁻¹ and 0.129 min⁻¹ and 0.182 min⁻¹ and 0.138 min⁻¹
k3 (TSPO; [3]): 0.040 min⁻¹ and 0.045 min⁻¹ and 0.046 min⁻¹ and 0.026 min⁻¹ and 0.033 min⁻¹ and 0.024 min⁻¹
k4 (TSPO; [3]): 0.033 min⁻¹ and 0.021 min⁻¹ and 0.027 min⁻¹ and 0.013 min⁻¹ and 0.012 min⁻¹
K1 (TSPO; [4]): 0.052 mL/cc/min
k4 (TSPO; [4]): 0.020 min⁻¹
